Test results reported in patent US12661355B2, “Compounds and methods for inducing UCP1 expression” (The Regents of the University of California, priority 2020, dated 2026).

Key:
p38 MAPK = experiment: CETSA in brown adipocytes, p38 MAPK; type: binding, mouse; settings: 10 μM for 8 h
Method: CETSA assays were performed according to known methods. Briefly, differentiated brown adipocytes (one 10 cm dish per treatment) were treated with vehicle or compounds, trypsinized, counted, and re-suspended in approximately 450 μl PBS containing protease inhibitors (volumes were adjusted to have the same number of cells in each treatment). For each sample, 18 μl was distributed into each of 7 PCR tubes. Samples were heated using a thermocycler with a temperature gradient (iCycler, Biorad) for 3 min, followed by 3 min at room temperature, and then snap-frozen in liquid N2. After two freeze-thaw cycles, samples were centrifuged at 20,000 g for 15 min at 4° C., and the supernatants were transferred to another set of tubes. Proteins were analyzed by immunoblotting.
The potential interaction of Z160 with PKA subunits and AKAPs was assessed first by identifying which PKA subunits and AKAP isoforms are normally present in BAT. […] To perform the CETSA assays, cultured brown adipocytes were incubated with 10 μM Z160 for 8 h, after which the thermal shift was analyzed by Western blot.

UCP1 = experiment: Gene expression in immortalized human white adipocytes; type: cell-based; settings: 10 μM for 4 days
Method: Human immortalized brown and white preadipocytes were obtained from Dr. Yu-Hua Tseng (Joslin Diabetes Center, Harvard Medical School, USA). The generation of the two cell lines from human neck adipose tissue biopsies and immortalization was performed as previously described but from a different donor. Cells were cultured in high glucose DMEM supplemented with 10% FBS and antibiotics. Two days after reaching confluence, cells were treated with 30 μM biotin, 500 nM insulin, 17 μM pantothenate, 100 nM dexamethasone, 2 nM 3,3′,5-Triiodo-L-thyronine, 500 μM IBMX, 30 μM indomethacin and 1 μM rosiglitazone, for 12 days. Afterwards, cells were treated with 30 μM biotin, 500 nM insulin, 17 μM pantothenate and 2 nM 3,3′,5-Triiodo-L-thyronine (Maintenance media) for 2 days with end-point assays performed on day 18, and for 5 days with end-point assays performed on day 21, for the brown and white adipocytes cells, respectively.
Mouse RNA levels were measured by qPCR according to known methods. Data were normalized to B2m and Tbp reference genes. Human RNA was extracted using an RNA Mini Plus kit (Zymo) and gene expression determined by Taqman assay. The 1-step qPCR was run on a QuantStudio 12K Flex Real Time PCR System (ThermoFisher) using the following protocol: 50° C. for 5 minutes, 95° C. for 20 seconds, 40 cycles of 95° C. for 15 seconds and 60° C. for 60 seconds. […]

[1] = tested on: immortalized brown adipocytes; experiment: Global gene expression analysis (microarray, DAVID functional annotation) in immortalized brown adipocytes; type: cell-based, mouse
Method: Mouse RNA levels were measured by qPCR according to known methods. Data were normalized to B2m and Tbp reference genes. Human RNA was extracted using an RNA Mini Plus kit (Zymo) and gene expression determined by Taqman assay. The 1-step qPCR was run on a QuantStudio 12K Flex Real Time PCR System (ThermoFisher) using the following protocol: 50° C. for 5 minutes, 95° C. for 20 seconds, 40 cycles of 95° C. for 15 seconds and 60° C. for 60 seconds. Data were normalized to PPIA and PSMB2 reference genes. For global gene expression analysis, RNA isolated from brown adipocytes treated with compounds as indicated (four biological replicates) was hybridized to Illumina mouse Ref 8 V2.0 bead chips at the University of California, Los Angeles Neuroscience Genomics Core as previously described. Data were processed with GenomeStudio V2011.1 using the quantile normalization, background subtraction, and a present call of P<0.05.
To assess the effects of Z160 on global transcription in mouse brown adipocytes, microarray analysis of RNA isolated from immortalized brown adipocytes treated with either vehicle or Z160 was performed. […] The results of the microarray were corroborated using qPCR for representative genes from each electron transport chain complex (FIG. 5B).

AKAP1mut cells = experiment: Gene expression in AKAP1mut and AKAP1wt brown adipocyte cell lines; type: cell-based, mouse; settings: 10 μM
Method: RNA levels were measured by qPCR according to known methods. Briefly, RNA was extracted with TRIzol (Invitrogen) and reverse transcribed with iScript (Bio-Rad). Real-time PCR analysis was performed with a CFX Connect (Bio-Rad).
Two gRNAs were selected using sgRNA Designer from the Broad Institute (gRNA1: […] (SEQ ID NO: 46) and gRNA2: […] (SEQ ID NO: 47)). Cloning was performed using pSpCas9 (BB)-2A-puro (PX459) V2.0 vector (Addgene plasmid #62988). Plasmid construction was confirmed by sequencing. A puromycin-sensitive brown adipocyte cell line was transfected with the two plasmids and selected with […] puromycin. Single-cell cloning was performed in a 96-well plate and clones selected by Western blot to detect AKAP1 protein knockdown, and confirmed by sequencing after PCR amplification (PCR primers: […] (SEQ ID NO: 48) and […] (SEQ ID NO: 49)).
To further assess the requirement of AKAP1 to mediate the effects of Z160, AKAP1 was inactivated in an immortalized brown adipocyte cell line (AKAP1wt) using CRISPR/Cas9 gene editing. One clone (AKAP1mut) was selected based on very low AKAP1 protein levels (FIG. 10A).

[2] = tested on: electron transport chain protein complexes; experiment: Western blot of electron transport chain protein complexes in isolated mitochondria; type: cell-based, mouse; settings: overnight 10 μM
Method: Cells and tissues were lysed in 10 mM Tris pH 7.5, 10 mM NaCl, 1 mM EDTA and 0.5% Triton X-100, supplemented with complete mini EDTA-free protease (Roche Diagnostics) and phosphatase (Cocktail 2 and 3, Sigma) inhibitors, followed by 10 second sonication. For analysis of mitochondrial proteins, mitochondria were isolated from cells by dual centrifugation, as described. Protein lysates were separated by SDS-PAGE and transferred to a nitrocellulose membrane. Transfer was confirmed by Ponceau staining (P7170, Sigma). After blocking in 5% milk, 0.1% Tween-20 in Tris-buffered saline (TBS), primary antibody was incubated overnight at 4° C. in 5% bovine serum albumin and 0.1% Tween-20 in TBS. Primary antibodies against ACTB (GTX109639, GeneTex), AKAP1 (5203, Cell Signaling), AKAP6 (07-087, Millipore), Cytochrome c (136F3, Cell Signaling), electron transport chain protein complexes (Total OXPHOS rodent WB antibody cocktail ab110413, Abcam), GAPDH (GTX100118, Genetex), active p38 MAPK (V1211, Promega), total p38 MAPK (8690, Cell Signaling), PGC1α (AB3242, Millipore), phospho-(Ser/Thr) PKA substrate (9621, Cell Signaling), PKA C-α (4782, Cell Signaling), PKA RII-β (ab75993, Abcam), and UCP1 (662045, Calbiochem) were used at 1:2000. […] Quantification using representative bands from the Ponceau staining was performed with ImageJ.

[3] = genes >1.5-fold down-regulated, DAVID
[4] = genes >1.5-fold up-regulated, DAVID

## COc1ccc(NC(=O)CSc2nc3ccccc3c(=O)[nH]2)c(OC)c1 [Z160]
p38 MAPK
  heat stability of p38 MAPK: did not influence the heat stability
UCP1
  UCP1 expression: 7 fold
  expression of CIDEA, ACADM, CPT1B and ELOVL3: greatly increased expression
[1]; [3]
  Genes, GO cellular component Down: Basement membrane: 17
  Genes, GO cellular component Down: Cell surface: 45
  Genes, GO cellular component Down: Cytoplasm: 178
  Genes, GO cellular component Down: Extracellular exosome: 119
  Genes, GO cellular component Down: Extracellular region: 86
  Genes, GO cellular component Down: Extracellular space: 72
  Genes, GO cellular component Down: Focal adhesion: 25
  Genes, GO cellular component Down: Proteinaceous extracellular matrix: 35
[1]; [4]
  Genes, GO cellular component Up: Mitochondrial inner membrane: 27
  Genes, GO cellular component Up: Mitochondrion: 88
[1]; microarray, vs vehicle
  Ucp1 increase (microarray): 2.5 fold
  probes down-regulated by at least 1.5-fold: 504 probes
  probes up-regulated by at least 1.5-fold: 581 probes
AKAP1mut cells; AKAP1mut vs AKAP1wt
  induced expression of Hoxa5, Cidea, Elovl3, Acox1 and Cpt1b in AKAP1mut: blunted or reduced
AKAP1mut cells; AKAP1mut
  Ucp1 expression response in AKAP1mut cells: did not respond
AKAP1mut cells; both AKAP1wt and AKAP1mut cells
  Ppargc1a expression: increased
[2]
  mitochondrial complex protein abundance: slight enhancement
